The Deep4Chem optical property database

Experiment: photoluminescence quantum yield (fraction); solvent given as SMILES

CCCCN1C(=O)C(=C/C=C/C=C/C=C2N(CCCC)c3ccccc3N2CCCC)C(=O)N(CCCC)C1=S
photoluminescence quantum yield (in CC#N): 0.099
photoluminescence quantum yield (in CCCCCC): 0.178
photoluminescence quantum yield (in CCO): 0.074
photoluminescence quantum yield (in CN(C)C=O): 0.127
photoluminescence quantum yield (in CO): 0.056
photoluminescence quantum yield (in Cc1ccccc1): 0.73
photoluminescence quantum yield (in ClC(Cl)Cl): 0.365
photoluminescence quantum yield (in ClCCl): 0.266
photoluminescence quantum yield (in OCC(F)(F)F): 0.023

Cc1cccc(-c2c3ccccc3c(-c3cccc(C)n3)c3ccccc23)n1
photoluminescence quantum yield (in ClCCl): 0.77

c1ccc(-c2cccc3ncc(-c4ccccc4)n23)cc1
photoluminescence quantum yield (in ClCCl): 0.24

CC1=c2cc3c(cc2=[N+]2C1=Cc1c4ccccc4c(C)n1[B-]2(F)F)C1=Cc2c4ccccc4c(C)n2[B-](F)(F)[N+]1=C3C
photoluminescence quantum yield (in ClC(Cl)Cl): 0.04

O=C1OC(=O)c2ccc(N(c3ccccc3)c3ccc4ccccc4c3)c3cccc1c23
photoluminescence quantum yield (in C1CCOC1): 0.0003
photoluminescence quantum yield (in CCCCCC): 0.335
photoluminescence quantum yield (in c1ccccc1): 0.0162

CCCCCCCCCCCCCCCCCCOc1ccc([B-]23NC(c4ccccc4)=Nc4cccc([n+]42)N=C(c2ccccc2)N3)cc1
photoluminescence quantum yield (in ClCCl): 0.14

C[Si](C)(c1cccc2ccccc12)[Si](C)(C)[Si](C)(C)[Si](C)(C)[Si](C)(C)[Si](C)(C)c1c2ccccc2cc2ccccc12
photoluminescence quantum yield (in C1CCCCC1): 0.5
photoluminescence quantum yield (in CC#N): 0.017

Cc1cc(-c2ccc(C(C)(C)C)cc2)c2nsnc2c1-c1ccc(C(C)(C)C)cc1
photoluminescence quantum yield (in ClCCl): 0.14

CCCC1=Cc2nc1ccc1[nH]c(cc1CCC)c1nc(c(OC)cc3[nH]c2cc3CCC)C(CCC)=C1
photoluminescence quantum yield (in Cc1ccccc1): 0.18

F[B-]1(F)n2cccc2C(c2c3ccccc3cc3ccccc23)=C2C=CC=[N+]21
photoluminescence quantum yield (in CCCCCC): 0.135
photoluminescence quantum yield (in Cc1ccccc1): 0.008
photoluminescence quantum yield (in ClCCl): 0.002

CCOC(=O)c1sc2nc3c(c(C#N)c2c1N)CCCCCC3
photoluminescence quantum yield (in c1ccccc1): 0.063

CCCCN(CCCC)c1ccc(C#Cc2cc(C#Cc3ccc(C(F)(F)F)cc3)c(C#Cc3ccc(N(CCCC)CCCC)cc3)cc2C#Cc2ccc(C(F)(F)F)cc2)cc1
photoluminescence quantum yield (in ClCCl): 0.5

O=P1(c2ccccc2)c2ccc(N3c4ccccc4Oc4ccccc43)cc2-c2cc(N3c4ccccc4Oc4ccccc43)ccc21
photoluminescence quantum yield (in Cc1ccccc1): 0.83
photoluminescence quantum yield (in c1ccc2c(c1)c1ccccc1n2-c1ccc(-c2ccc(-n3c4ccccc4c4ccccc43)cc2)cc1): 0.8

CCCCCCCCOc1ccc2c3cccc4c(OCCCCCCCC)ccc(c5cccc1c52)c43
photoluminescence quantum yield (in C1CCOC1): 0.94
photoluminescence quantum yield (in Cc1ccccc1): 0.9
photoluminescence quantum yield (in ClC(Cl)(Cl)Cl): 0.08
photoluminescence quantum yield (in ClC(Cl)Cl): 0.69
photoluminescence quantum yield (in ClCCl): 0.81
photoluminescence quantum yield (in c1ccncc1): 0.9

CN(C)c1cc(C#N)c(N(C)C)c(C#N)c1
photoluminescence quantum yield (in C1CCCCC1): 0.37
photoluminescence quantum yield (in C1CCOC1): 0.54
photoluminescence quantum yield (in C1COCCO1): 0.55
photoluminescence quantum yield (in CC1COC(=O)O1): 0.58
photoluminescence quantum yield (in CC#N): 0.53
photoluminescence quantum yield (in CC(C)=O): 0.51
photoluminescence quantum yield (in CC(C)OC(C)C): 0.39
photoluminescence quantum yield (in CCC#N): 0.47
photoluminescence quantum yield (in CCC(C)C): 0.37
photoluminescence quantum yield (in CCCCCC): 0.38
photoluminescence quantum yield (in CCCCCCCCO): 0.58
photoluminescence quantum yield (in CCCCCOCCCCC): 0.46
photoluminescence quantum yield (in CCCCOC(C)=O): 0.52
photoluminescence quantum yield (in CCCCOCCCC): 0.45
photoluminescence quantum yield (in CCCOCCC): 0.55
photoluminescence quantum yield (in CCO): 0.51
photoluminescence quantum yield (in CCOC(C)=O): 0.49
photoluminescence quantum yield (in CCOCC): 0.46
photoluminescence quantum yield (in CN(C)C=O): 0.57
photoluminescence quantum yield (in CO): 0.52
photoluminescence quantum yield (in CS(C)=O): 0.55
photoluminescence quantum yield (in Cc1ccccc1): 0.55
photoluminescence quantum yield (in ClCCCl): 0.52
photoluminescence quantum yield (in ClCCl): 0.57
photoluminescence quantum yield (in N#Cc1ccccc1): 0.5
photoluminescence quantum yield (in O): 0.47
photoluminescence quantum yield (in OCC(O)CO): 0.54
photoluminescence quantum yield (in c1ccccc1): 0.57

COc1ccc(-c2ccc(-c3ccc(F)cc3)cc2)cc1
photoluminescence quantum yield (in C1COCCO1): 0.57

CCCCN1C(=O)C(=C/C=C/C=C2N(CCCC)c3ccccc3N2CCCC)C(=O)N(CCCC)C1=S
photoluminescence quantum yield (in CCCCCC): 0.115
photoluminescence quantum yield (in CCO): 0.013
photoluminescence quantum yield (in CN(C)C=O): 0.023
photoluminescence quantum yield (in Cc1ccccc1): 0.168
photoluminescence quantum yield (in ClC(Cl)Cl): 0.046
photoluminescence quantum yield (in ClCCl): 0.032

CC(C)(C)c1ccc2c(c1)c1cc(C(C)(C)C)ccc1n2-c1cc(-n2c3ccc(C(C)(C)C)cc3c3cc(C(C)(C)C)ccc32)c(-n2c3ccc(C(C)(C)C)cc3c3cc(C(C)(C)C)ccc32)c(C#N)c1-n1c2ccc(C(C)(C)C)cc2c2cc(C(C)(C)C)ccc21
photoluminescence quantum yield (in Cc1ccccc1): 0.68

O=S1(=O)C2=C(c3ccccc31)C1(C3=C(c4ccccc41)S(=O)(=O)c1ccccc13)c1ccccc12
photoluminescence quantum yield (in ClCCl): 0.76

Cc1ccc(C#Cc2ccc3nc4ccc(C#Cc5ccc(C)cc5)cn4c(=O)c3c2)cc1
photoluminescence quantum yield (in ClCCl): 0.43

CC(=O)c1ccc(NC(=O)c2ccc(N(C)C)cc2)cc1
photoluminescence quantum yield (in C1CCCCC1): 0.0006
photoluminescence quantum yield (in C1CCOC1): 0.0158
photoluminescence quantum yield (in CC#N): 0.0017
photoluminescence quantum yield (in CCOCC): 0.001

CCc1cccc(CC)c1-c1c2ccccc2c(C#Cc2ccccc2)c2cc3ccccc3cc12
photoluminescence quantum yield (in ClCCl): 0.57

CCOC(=O)CC[N+]1=c2cc3c(cc2CCC1)=Cc1c(c2cc4c5c(c2oc1=O)CCCN5CCC4)O3
photoluminescence quantum yield (in CC#N): 0.024
photoluminescence quantum yield (in CO): 0.017
photoluminescence quantum yield (in ClCCl): 0.125
photoluminescence quantum yield (in O): 0.002

O=c1c2cc(Cl)ccc2nc2n1[B-](F)(F)[n+]1ccccc1-2
photoluminescence quantum yield (in CC#N): 0.89
photoluminescence quantum yield (in ClCCl): 0.99

F[B-]1(F)OC(c2ccc(C(F)(F)F)cc2)=Cc2cc(Cl)nc[n+]21
photoluminescence quantum yield (in C1CCOC1): 0.01
photoluminescence quantum yield (in CC#N): 0.01
photoluminescence quantum yield (in Cc1ccccc1): 0.04
photoluminescence quantum yield (in ClC(Cl)Cl): 0.01
photoluminescence quantum yield (in ClCCl): 0.01

O=c1oc2ccccc2cc1-c1cn2ccccc2n1
photoluminescence quantum yield (in ClC(Cl)Cl): 0.15

CCCCCCCCC1(CCCCCCCC)c2cc(-c3ccc([N+](=O)[O-])cc3)ccc2-c2ccc(-c3ccc([N+](=O)[O-])cc3)cc21
photoluminescence quantum yield (in C1CCCCC1): 0
photoluminescence quantum yield (in CCO): 0
photoluminescence quantum yield (in CN(C)C=O): 0.31
photoluminescence quantum yield (in CS(C)=O): 0.28
photoluminescence quantum yield (in Cc1ccccc1): 0
photoluminescence quantum yield (in ClC(Cl)Cl): 0.11

N#Cc1cc2ccc(cc2)c2cccc3cccc(c4ccc(cc4)cc(C#N)c4ccc(cc4)c4cccc5cccc(c6ccc1cc6)c54)c32
photoluminescence quantum yield (in Cc1ccccc1): 0.55

Oc1ccc2ccccc2c1-c1nc2c(c3c1-c1ccccc1CC3)-c1ccccc1CC2
photoluminescence quantum yield (in ClCCl): 0.07

O=[N+]([O-])c1ccc([N+]2=Cc3ccc4c5c(ccc4c3O[B-]2(c2ccccc2)c2ccccc2)C=[N+](c2ccc([N+](=O)[O-])cc2)[B-](c2ccccc2)(c2ccccc2)O5)cc1
photoluminescence quantum yield (in Cc1ccccc1): 0.63
photoluminescence quantum yield (in ClCCl): 0.48

COC(=O)c1ccc(/C=C2\C=C(c3ccc([N+](=O)[O-])cc3)OC2=O)cc1
photoluminescence quantum yield (in C1COCCO1): 0.002

C(=C(c1ccccc1)c1ccccc1)c1ccc(-c2cc(-c3ccc(C=C(c4ccccc4)c4ccccc4)cc3)c(-c3ccc(C=C(c4ccccc4)c4ccccc4)cc3)cc2-c2ccc(C=C(c3ccccc3)c3ccccc3)cc2)cc1
photoluminescence quantum yield (in C1CCOC1): 0.0282

COc1cccc(-c2nc(-c3ccccc3)c(-c3ccccc3)[nH]2)c1
photoluminescence quantum yield (in CO): 0.28

CC(C)c1cc(C(C)C)c(B2c3cc(-n4c5ccccc5c5ccccc54)ccc3N(c3ccccc3)c3ccc(-n4c5ccccc5c5ccccc54)cc32)c(C(C)C)c1
photoluminescence quantum yield (in c1cc(-c2cccc(-n3c4ccccc4c4ccccc43)c2)cc(-n2c3ccccc3c3ccccc32)c1): 0.99

CCN1C(=CC2=C([O-])C(=Cc3[se]c4ccccc4[n+]3CC)C2=O)[Se]c2ccccc21
photoluminescence quantum yield (in CC(C)O): 0.14

C(=C\c1ccc(-c2ccncc2)cc1)/c1ccc(-c2ccncc2)cc1
photoluminescence quantum yield (in ClCCl): 0.97
